The record followed here is ChEMBL document CHEMBL1130790, “Peptidyl human heart chymase inhibitors. 2. Discovery of highly selective difluoromethylene ketone derivatives with Glu at P3 site” (Bioorg Med Chem Lett, 1998).

The target in one experiment is T1, Chymase (Homo sapiens, UniProt P23946).
T1 sequence (P23946 whole entry): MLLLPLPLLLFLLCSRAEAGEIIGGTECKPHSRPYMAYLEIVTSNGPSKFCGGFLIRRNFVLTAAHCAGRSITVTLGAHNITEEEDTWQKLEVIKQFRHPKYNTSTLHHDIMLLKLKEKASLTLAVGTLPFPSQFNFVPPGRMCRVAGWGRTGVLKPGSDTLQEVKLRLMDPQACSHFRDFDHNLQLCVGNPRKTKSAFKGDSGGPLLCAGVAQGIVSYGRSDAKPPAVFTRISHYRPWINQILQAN
The experiment can be described thus: Compound was evaluated for inhibitory activity against human heart chymase (HHC).

Experiment [1] is described as follows: Selectivity ratio of Bovine chymotrypsin (BCT-Ki) to human heart chymase (HHC-Ki).

SMILES strings stand for the structures. Where a SMILES comes first, the peptide text is derived from it. The star is where a group is joined. Cbz = O=C(OCc1ccccc1)*

By Ki is commonly meant a dissociation constant, usually derived from enzyme kinetics or from competition with a known ligand.

`CC(C)(C)OC(=O)NC(CCC(=O)O)C(=O)N1CCC[C@H]1C(=O)NC(Cc1ccccc1)C(=O)C(F)(F)C(=O)Nc1cccc(C(=O)O)c1` (stereo partly specified): affinity at Chymase was put at a Ki of 3.9 nM. Also, the Ratio in experiment [1] came out at 332.

Molecule `CCCCNS(=O)(=O)c1cccc(NC(=O)C(F)(F)C(=O)C(Cc2ccccc2)NC(=O)[C@@H]2CCCN2C(=O)C(CCC(=O)O)NC(=O)OC(C)(C)C)c1` (stereo partly specified) had an inhibition constant Ki on Chymase of 22.8 nM.

Take `CC(C)(C)OC(=O)NC(CC(=O)O)C(=O)N1CCC[C@H]1C(=O)NC(Cc1ccccc1)C(=O)C(F)(F)C(=O)Nc1cccc(C(=O)O)c1` (stereo partly specified): affinity at Chymase was put at a Ki of 36.6 nM. Besides, the Ratio in experiment [1] is 2730.

Turning to `CC(C)(C)OC(=O)NC(CCC(=O)O)C(=O)N1CCC[C@H]1C(=O)NC(Cc1ccccc1)C(=O)C(F)(F)C(=O)Nc1cccc(CC(=O)O)c1` (stereo partly specified), the Ki on Chymase worked out at 6.7 nM. Also, the Ratio in experiment [1] is 590.

Turning to `CC(C)(C)OC(=O)NC(CCC(=O)O)C(=O)N1CCC[C@H]1C(=O)NC(Cc1ccccc1)C(=O)C(F)(F)C(=O)Nc1cc(C(=O)O)cs1` (stereo partly specified), the Ki at Chymase came to 6 nM. The Ratio in experiment [1] was above 16700.

Consider `CC(C)(C)OC(=O)NC(CCC(=O)O)C(=O)N1CCC[C@H]1C(=O)NC(Cc1ccccc1)C(=O)C(F)(F)C(=O)Nc1cccc(S(N)(=O)=O)c1` (stereo partly specified), for which affinity on Chymase was put at a Ki of 27.5 nM. Moreover, the Ratio in experiment [1] worked out at 38.

In turn, `CC(C)C(NC(=O)OC(C)(C)C)C(=O)N1CCC[C@H]1C(=O)NC(Cc1ccccc1)C(=O)C(F)(F)C(=O)Nc1cccc(C(=O)O)c1` (stereo partly specified) returned a Ki on Chymase of 5.6 nM.

With `CC[C@H](C)[C@H](NC(=O)OCc1ccccc1)C(=O)N[C@@H](CCC(=O)O)C(=O)N1CCC[C@H]1C(=O)N[C@@H](Cc1ccccc1)C(=O)OC` (Cbz-IEPF-OMe), on Chymase, the Ki was determined as 3 nM.

In turn, `CC(C)(C)OC(=O)NC(CCC(=O)O)C(=O)N1CCC[C@H]1C(=O)NC(Cc1ccccc1)C(=O)C(F)(F)C(=O)Nc1cccc(C(N)=O)c1` (stereo partly specified) returned a Ki at Chymase of 21.1 nM. Further, the Ratio in experiment [1] was found to be 58.

`CC(C)(C)OC(=O)NC(CCC(=O)O)C(=O)N1CCC[C@H]1C(=O)NC(Cc1ccccc1)C(=O)C(F)(F)C(=O)Nc1cc(C(=O)O)c2ccccc2c1` (stereo partly specified): affinity at Chymase was put at a Ki of 14.2 nM.
